Measurements reported in patent US9133164B2, “MIF inhibitors and their uses” (INNOV88 LLC, priority 2011, dated 2015).
Like-named read-outs stand apart in the source and are kept apart here.

Columns and labels:
LPS-stimulated PBMCs = experiment: Cytokine production in LPS-stimulated human PBMCs (ELISA); assay type: cell-based; settings: for inhibition at 2.5 µM / inhibition at 25 µM: Homo sapiens, PBMC
Text: MIF is secreted by monocytes/macrophages, activated T cells and several effector cells that play an important role in the perpetuation of inflammatory responses of the disease pathogenesis of several autoimmune and inflammatory disorders. MIF promotes the production of proinflammatory mediators such as tumor necrosis factor-α (TNF-α), interleukin (IL)-1β, IL-6 and IL-8 acting in an autocrine and paracrine function in the induction of proinflammatory responses. MIF has also been reported to stimulate the production of IL-17, a T helper 17 (Th17)-specific cytokine critical to the pathogenesis of several autoimmune and inflammatory diseases. […] Mono-Mac-6 Cells: The cellular efficacy of compound candidates is determined using the human monocytic cell line, Mono-Mac-6 cells (MM6 cells) as it has been shown that MM6 cells abundantly express MIF receptors CD74 and CXCR4. MIF-mediated signal transduction through these receptors may be important for the production of inflammatory mediators, including TNF-α, IL-1β, IL-6, IL-8, interferon-γ (IFN-γ) and prostaglandin E2 (PGE2) in these cells. To induce the production of inflammatory mediators, MM6 cells will be plated at a final concentration of 5×10^5 cells/ml in RPMI 1640 medium containing 1% heat-inactivated low-pyrogen fetal bovine serum, 2 mM GlutaMAX-I, 1% non-essential amino acids, 1% sodium pyruvate, 100 units/ml penicillin G and 100 μg/ml streptomycin (Gibco BRL Life Technologies). Cells will be stimulated with 100 ng/ml rhMIF purchased commercially or generated in house with or without inhibitor for 20 h at 37° C. with 5% CO2. The supernatants are stored at […] until they are to be assayed. The levels of inflammatory mediators will be determined using commercial :ELISA kits (eBiosciences). Human Peripheral Blood Mononuclear Cells (PBMCs): The cellular efficacy of compound candidates in inhibiting the production of proinflammatory mediators TNF-α, IL-1β, IL-6 and IL-8 following lipopolysaccharide (LPS) and rhMIF stimulation, and the production of T helper 17 (Th17)-specific cytokines IL-17F and IL-22 following anti-CD3/anti-CD28 stimulation, are determined in human PBMCs. To induce the production of proinflammatory cytokine mediators, cryopreserved human PBMCs (Cellular Technology Ltd.) are plated at a final concentration of 2×10^5 cells/ml in RPMI 1640 medium containing 1% heat-inactivated fetal bovine serum, 1% L-Glutamine and 1% Penicillin/Streptomycin (Lonza). Cells are pre-incubated with or without inhibitor compounds dissolved in DMSO for 1 hour, then stimulated with LPS (Sigma Aldrich) or rhMIF to yield final concentrations of <0.1% DMSO, 100 ng/ml LPS and the compound concentration of interest. The potency of the compound candidates in inhibiting cytokine production is compared, to other small molecule MIF inhibitor standards ISO-1 (EMD Chemicals) N-acetyl-p-benzoquinone imine (NAPQI) and Ibudilast (TCI America). Cells were incubated for 20 hours at 37° C., 5% CO2. For the Th17-specific cytokine production assay, cells are stimulated with 5 ug/mL plate immobilized anti-CD3 (eBioscience) and 2 ug/mL soluble anti-CD28 (eBioscience) in the presence or absence of inhibitor compounds dissolved in DMSO to yield final compound concentrations of interest at <0.1% DMSO. Cells were incubated for 72 hours at 37° C. and 5% CO2. The supernatants are stored at −20° C. until they are to be assayed by ELISA. Cell viability is determined using PrestoBlue™ Cell Viability Reagent (Invitrogen). The cytokine production levels of TNF-α, IL-1β, IL-6, IL-8, IL-17F and IL-22 are determined using commercial ELISA kits (eBiosciences). Human Rheumatoid Arthritis Synovial Fibroblast (RASF) Cell Line: RASF cells are cultured in Dulbecco's modified Eagle's medium with 15% FBS, 1% glutamine, and 1% penicillin/streptamycin (all from Gibco (Invitrogen), Gaithersburg, Md.). […]

Native human MIF = target: T1, Native human MIF (Homo sapiens, UniProt P14174); experiment: MIF tautomerase activity assay (HPP substrate); assay type: biochemical; settings: absorbance at 300 nm
T1 sequence (P14174 2-115 limits assumed): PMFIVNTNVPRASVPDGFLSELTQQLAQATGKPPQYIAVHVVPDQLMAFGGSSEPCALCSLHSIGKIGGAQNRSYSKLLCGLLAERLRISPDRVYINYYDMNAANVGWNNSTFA
Method: The ability of candidate compounds to inhibit this tautomerase activity is quantitated by wing hydroxyphenyl pyruvic acid (HPP) as a substrate and following the increase in absorbance due to the enzymatic formation of the HPP enol-borate complex at 300 nm in the absence and presence of a test compound. The IC50 value of compounds was determined by plotting the initial velocities determined at 300 nm as a function of a test compound's concentration. Assays were carried out in a 96 or 384 well plate format.
Representative MIF inhibitors were tested in the assay described above and the results tabulated in Table 1 wherein “A” represents ≦1 μM; “B” represents >1 μM and ≦100 μM; “C” represents >100 μM

[1] = LPS-stimulated PBMCs, compound at 2.5 uM, 1 hour preincubation, 20 hours, read-out: percent inhibition of IL-1β production
[2] = LPS-stimulated PBMCs, compound at 2.5 uM, 1 hour preincubation, 20 hours, read-out: percent inhibition of IL-6 production
[3] = LPS-stimulated PBMCs, compound at 2.5 uM, 1 hour preincubation, 20 hours, read-out: percent inhibition of IL-8 production
[4] = LPS-stimulated PBMCs, compound at 2.5 uM, 1 hour preincubation, 20 hours, read-out: percent inhibition of TNF-α production
[5] = LPS-stimulated PBMCs, compound at 25 uM, 1 hour preincubation, 20 hours, read-out: percent inhibition of IL-1β production
[6] = LPS-stimulated PBMCs, compound at 25 uM, 1 hour preincubation, 20 hours, read-out: percent inhibition of IL-6 production
[7] = LPS-stimulated PBMCs, compound at 25 uM, 1 hour preincubation, 20 hours, read-out: percent inhibition of IL-8 production
[8] = LPS-stimulated PBMCs, compound at 25 uM, 1 hour preincubation, 20 hours, read-out: percent inhibition of TNF-α production
[9] = LPS-stimulated PBMCs, ISO-1 at 5.0 uM, 20 hours
[10] = LPS-stimulated PBMCs, ISO-1 at 50 uM, 20 hours
[11] = read-out: percent inhibition of IL-1β production
[12] = read-out: percent inhibition of IL-6 production
[13] = read-out: percent inhibition of IL-8 production
[14] = read-out: percent inhibition of TNF-α production

Cn1c(=O)c(C#N)c(NC2CN(C(=O)c3cccs3)C2)c2ccccc21 [Compound 6]
inhibition at 2.5 µM (LPS-stimulated PBMCs; [1]): 10 to 50%
inhibition at 2.5 µM (LPS-stimulated PBMCs; [2]): 10 to 50%
inhibition at 2.5 µM (LPS-stimulated PBMCs; [3]): < 10%
inhibition at 2.5 µM (LPS-stimulated PBMCs; [4]): 10 to 50%
inhibition at 25 µM (LPS-stimulated PBMCs; [5]): 10 to 50%
inhibition at 25 µM (LPS-stimulated PBMCs; [6]): 10 to 50%
inhibition at 25 µM (LPS-stimulated PBMCs; [7]): < 10%
inhibition at 25 µM (LPS-stimulated PBMCs; [8]): 10 to 50%
IC50 (Native human MIF): ≤ 1000 nM

N#Cc1c(NC2CN(C(=O)c3ccncc3)C2)c2ccccc2n(Cc2ccc(F)cc2)c1=O [Compound 7]
inhibition at 2.5 µM (LPS-stimulated PBMCs; [1]): 50 to 70%
inhibition at 2.5 µM (LPS-stimulated PBMCs; [2]): 10 to 50%
inhibition at 2.5 µM (LPS-stimulated PBMCs; [3]): < 10%
inhibition at 2.5 µM (LPS-stimulated PBMCs; [4]): 10 to 50%
inhibition at 25 µM (LPS-stimulated PBMCs; [5]): > 70%
inhibition at 25 µM (LPS-stimulated PBMCs; [6]): < 10%
inhibition at 25 µM (LPS-stimulated PBMCs; [7]): < 10%
inhibition at 25 µM (LPS-stimulated PBMCs; [8]): > 70%
IC50 (Native human MIF): ≤ 1000 nM

N#Cc1c(NC2CN(C(=O)c3cccs3)C2)c2ccccc2n(Cc2ccc(F)cc2)c1=O [Compound 8]
inhibition at 2.5 µM (LPS-stimulated PBMCs; [1]): 50 to 70%
inhibition at 2.5 µM (LPS-stimulated PBMCs; [2]): < 10%
inhibition at 2.5 µM (LPS-stimulated PBMCs; [3]): < 10%
inhibition at 2.5 µM (LPS-stimulated PBMCs; [4]): 10 to 50%
inhibition at 25 µM (LPS-stimulated PBMCs; [5]): > 70%
inhibition at 25 µM (LPS-stimulated PBMCs; [6]): 10 to 50%
inhibition at 25 µM (LPS-stimulated PBMCs; [7]): < 10%
inhibition at 25 µM (LPS-stimulated PBMCs; [8]): 10 to 50%
IC50 (Native human MIF): ≤ 1000 nM

COC(=O)CC1CC(c2ccc(O)cc2)=NO1 (stereo not drawn) [ISO-1, reference compound]
percent inhibition of IL-1β production (LPS-stimulated PBMCs; [9]): F (“F” represents >50% inhibition and ≦70% inhibition)
percent inhibition of IL-6 production (LPS-stimulated PBMCs; [9]): D (“D” represents ≦10% inhibition)
percent inhibition of IL-8 production (LPS-stimulated PBMCs; [9]): D (“D” represents ≦10% inhibition)
percent inhibition of TNF-α production (LPS-stimulated PBMCs; [9]): E (“E” represents >10% inhibition and ≦50% inhibition)
percent inhibition of IL-1β production (LPS-stimulated PBMCs; [10]): G (“G” represents >70% inhibition)
percent inhibition of IL-6 production (LPS-stimulated PBMCs; [10]): F (“F” represents >50% inhibition and ≦70% inhibition)
percent inhibition of IL-8 production (LPS-stimulated PBMCs; [10]): E (“E” represents >10% inhibition and ≦50% inhibition)
percent inhibition of TNF-α production (LPS-stimulated PBMCs; [10]): G (“G” represents >70% inhibition)

CC(C)C(=O)c1c(C(C)C)nn2ccccc12 [Ibudilast, reference compound]
inhibition at 2.5 µM (LPS-stimulated PBMCs; [1]): 50 to 70%
inhibition at 2.5 µM (LPS-stimulated PBMCs; [2]): < 10%
inhibition at 2.5 µM (LPS-stimulated PBMCs; [3]): < 10%
inhibition at 2.5 µM (LPS-stimulated PBMCs; [4]): > 70%
inhibition at 25 µM (LPS-stimulated PBMCs; [5]): > 70%
inhibition at 25 µM (LPS-stimulated PBMCs; [6]): < 10%
inhibition at 25 µM (LPS-stimulated PBMCs; [7]): < 10%
inhibition at 25 µM (LPS-stimulated PBMCs; [8]): > 70%

CC(=O)N=C1C=CC(=O)C=C1 [NAPQI, N-acetyl-p-benzoquinone imine, reference compound]
inhibition at 2.5 µM (LPS-stimulated PBMCs; [11]): 10 to 50%
inhibition at 25 µM (LPS-stimulated PBMCs; [11]): > 70%
inhibition at 2.5 µM (LPS-stimulated PBMCs; [12]): < 10%
inhibition at 25 µM (LPS-stimulated PBMCs; [12]): < 10%
inhibition at 2.5 µM (LPS-stimulated PBMCs; [13]): < 10%
inhibition at 25 µM (LPS-stimulated PBMCs; [13]): < 10%
inhibition at 2.5 µM (LPS-stimulated PBMCs; [14]): < 10%
inhibition at 25 µM (LPS-stimulated PBMCs; [14]): > 70%
